Experiment [1] deals with Valproic acid-induced autism disorder in albino Wistar rats. The experiment in a line: Open field test (hyperactivity) in Valproic acid-induced autism disorder. It counts as in vivo. The following applies: for No. of squares visited for 6 mins: PND 40, VPA 400 mg/kg, oral daily PND 14 to PND 40, mean ± SEM; for Hyperactive behavior / locomotor activity, open field test (in words): PND 40, compared to Disease control or to Group-3 and Group-4. The procedure:
The present study was to evaluate the effect of test substances on Valproic acid induced Autism spectrum disorder in wistar rats. The animals (50 animals) were divided into five groups each group consisting of 10 animals (5 animals per sex). Animals in Group-1 were treated with vehicle (0.5% CMC), Group-2 was treated with Valproic acid (VPA) 400 mg/kg via subcutaneous route, Group-3, Group-4 and Group-5 were treated with test substance Agmatine Sulphate (25.83 mg/kg), Nicotinamide Riboside chloride (6.46 mg/kg) and Agmatine Sulphate+Nicotinamide Riboside chloride (25.83 mg/kg+6.46 mg/kg) respectively, according to the body weight of animals. At the end of the experimental period, blood was collected from each group for biochemical analyses. On postnatal day 40 (PND 40), all the animals were exposed to the Morris water maze test and Open field test for specific time periods to determine the autism-like behaviors of the test substances. […] The experiment was performed in 14-day old male and female off springs. The weight of the rat pups on the first day of the experiment was 20-40 grams. Sodium Valproate at dose of 400 mg/kg was freshly prepared and administered via subcutaneous route to the rat pups on postnatal day 14 (PND 14). All the animals were divided into five groups and each group contained the same amount of male and female offspring (5 males and 5 females, per group). Animals in Group-1 served as Normal control and were treated with 0.5% CMC, Group-2 served as Disease control and were treated with VPA (400 mg/kg) via intraperitoneally (i.p.), whereas Group-3 was treated with Test-1 Agmatine Sulphate (25.83 mg/kg), Group-4 was treated with Test-2 Nicotinamide Riboside chloride (6.46 mg/kg) and Group-5 was treated with Test-1+Test-2 Agmatine Sulphate+Nicotinamide Riboside chloride (25.83 mg/kg+6.46 mg/kg). The assigned test substances were administered once daily from PND 14 to PND 40. In addition, behaviors of experimental animals were determined via Morris water maze and open field test. […] The dose volume administered to each rat was 10 ml/kg/day. Similarly, 0.5% CMC for Normal control and Disease control groups was administered orally at the same dose volume for a minimum of 26 consecutive days. The dose volume was calculated for individual animals on the first day of the treatment and was re-calculated according to the recent body weights recorded during the study. Daily individual dose volumes were recorded in the study records. All the animals were exposed to open field tests after the oral treatment with various tests, standard and control treatment in respective groups. The open field apparatus consisted of a wooden field of half square meter with a series of squares alternatively painted in black and white. […] Animals were treated with vehicle and the drug and were placed in the middle of the open field. Then the number of squares visited by the animals was counted for a 6 minute session. The number of entries by respective groups was recorded and used to determine the active time duration of animal post dosing. The determination of the hyperactivity of animals via this test was done on PND 40.

For experiment [2], the system named is Major depression disorder in Wistar rats. The experiment in a line: Overall behavioral evaluation in major depression disorder study (forced swim and open field tests). The following applies: oral 7 consecutive days. It counts as in vivo.
Another experiment deals with Lactate dehydrogenase. Put plainly: Lactate dehydrogenase (LDH) level in Valproic acid-induced autism disorder. It counts as in vivo, Albino wistar rats. The following applies: for LDH: VPA 400 mg/kg, oral daily for 26 days, mean ± SEM; for Levels of lactate dehydrogenase (in words): compared to Disease control or to Group-3 and Group-4. The procedure:
The present study was to evaluate the effect of test substances on Valproic acid induced Autism spectrum disorder in wistar rats. The animals (50 animals) were divided into five groups each group consisting of 10 animals (5 animals per sex). Animals in Group-1 were treated with vehicle (0.5% CMC), Group-2 was treated with Valproic acid (VPA) 400 mg/kg via subcutaneous route, Group-3, Group-4 and Group-5 were treated with test substance Agmatine Sulphate (25.83 mg/kg), Nicotinamide Riboside chloride (6.46 mg/kg) and Agmatine Sulphate+Nicotinamide Riboside chloride (25.83 mg/kg+6.46 mg/kg) respectively, according to the body weight of animals. At the end of the experimental period, blood was collected from each group for biochemical analyses. On postnatal day 40 (PND 40), all the animals were exposed to the Morris water maze test and Open field test for specific time periods to determine the autism-like behaviors of the test substances.
The experiment was performed in 14-day old male and female off springs. The weight of the rat pups on the first day of the experiment was 20-40 grams. Sodium Valproate at dose of 400 mg/kg was freshly prepared and administered via subcutaneous route to the rat pups on postnatal day 14 (PND 14). All the animals were divided into five groups and each group contained the same amount of male and female offspring (5 males and 5 females, per group). Animals in Group-1 served as Normal control and were treated with 0.5% CMC, Group-2 served as Disease control and were treated with VPA (400 mg/kg) via intraperitoneally (i.p.), whereas Group-3 was treated with Test-1 Agmatine Sulphate (25.83 mg/kg), Group-4 was treated with Test-2 Nicotinamide Riboside chloride (6.46 mg/kg) and Group-5 was treated with Test-1+Test-2 Agmatine Sulphate+Nicotinamide Riboside chloride (25.83 mg/kg+6.46 mg/kg). The assigned test substances were administered once daily from PND 14 to PND 40. In addition, behaviors of experimental animals were determined via Morris water maze and open field test.
The test item formulations were administered once each day by oral route at the dose levels of 25.83 mg/kg (agmatine sulphate), 6.46 mg/kg (nicotinamide riboside chloride) and 25.83 mg/kg+6.46 mg/kg/day (agmatine sulphate+nicotinamide riboside chloride), to rats of corresponding groups for a minimum of 26 consecutive days at approximately same time each day (±1 hour). The dose volume administered to each rat was 10 ml/kg/day. Similarly, 0.5% CMC for Normal control and Disease control groups was administered orally at the same dose volume for a minimum of 26 consecutive days. The dose volume was calculated for individual animals on the first day of the treatment and was re-calculated according to the recent body weights recorded during the study. Daily individual dose volumes were recorded in the study records.
Lactate dehydrogenase (also called lactic acid dehydrogenase or LDH) is an enzyme found in almost all body tissues. It plays an important role in cellular respiration, the process by which glucose (sugar) from food is converted into usable energy for our cells.

For experiment [3], the system named is Major depression disorder in Wistar rats. The experiment in a line: Open field test (ambulatory behavior) in Reserpine-induced major depression disorder. It counts as in vivo.

SMILES strings stand for the structures.

On to `N=C(N)NCCCCN.O=S(=O)(O)O` [Agmatine sulphate], for which the “No. of squares visited for 6 mins” value in experiment [1] (Female) was found to be 85.40 ± 1.03; in experiment [1] (Male), 86.20 ± 2.06. In addition, the “Hyperactive behavior / locomotor activity, open field test (in words)” value in experiment [1] is given as “significantly decreased hyperactive behavior”. The “Effect on major depression disorder (in words)” value in experiment [2] is recorded as “positive effects on major depression disorder”. In addition, the LDH in the experiment on Lactate dehydrogenase (Female) worked out at 272.20 ± 3.34 U/L; in the experiment with Lactate dehydrogenase (Male) it was 268.20 ± 2.56 U/L. Also, the “Levels of lactate dehydrogenase (in words)” value with Lactate dehydrogenase is “normalized levels of lactate dehydrogenase”. Further, the “No. of open arm entries (Open field test)” value in experiment [3] (po) is listed as 36.00 ± 0.86.

On to `NC(=O)c1ccc[n+]([C@@H]2O[C@H](CO)[C@@H](O)[C@H]2O)c1.[Cl-]` [Nicotinamide Riboside chloride, nicotinamide riboside chloride], for which the “No. of squares visited for 6 mins” value is reported as 87.20 ± 0.97 in experiment [1] (Female) and 88.40 ± 0.98 in experiment [1] (Male). In addition, in experiment [1], the “Hyperactive behavior / locomotor activity, open field test (in words)” value is “significantly decreased hyperactive behavior”. In addition, in experiment [2], the “Effect on major depression disorder (in words)” value was “positive effects on major depression disorder”. The LDH in the experiment on Lactate dehydrogenase (Female) was found to be 275.80 ± 1.71 U/L; in the experiment with Lactate dehydrogenase (Male), 274.00 ± 3.11 U/L. Also, the “Levels of lactate dehydrogenase (in words)” value with Lactate dehydrogenase is reported as “normalized levels of lactate dehydrogenase”. In addition, the “No. of open arm entries (Open field test)” value in experiment [3] (6 minute session, Reserpine induced, oral daily 7 days, mean ± SEM, n = 6) came out at 31.33 ± 0.71.

The values above are taken from patent US11285167B2, “Synergistic nutritional neuroprotective compositions for ameliorating neural dysfunction” (CELAGENEX RESEARCH (INDIA) PVT. LTD., priority 2019, dated 2022).
